Source: patent US5405598A, “Sensitizing agents for use in boron neutron capture therapy” (priority 1992, dated 1995)

Columns and labels:
HIV-1 (strain LAV) = experiment: Anti-HIV-1 activity in human PBM cells; format: cell-based; conditions: On day 6, in human PBM cells, without neutrons
From the text: Thus, these compounds have antiviral activity in the absence of neutrons.
(§1) Biological methods are described in Schinazi et al, Antimicrob. Agents Chemother., vol. 34, pp. 1061-1067, (1990).

CEM = experiment: Cytotoxicity in CEM cells; format: cell-based; conditions: On day 6; read-out: CEM IC50 (cytotoxicity)
From the text: as §1

PBM = experiment: Cytotoxicity in PBM cells; format: cell-based, human; conditions: On day 6; read-out: PBM IC50 (cytotoxicity)
From the text: as §1

Vero = experiment: Cytotoxicity in Vero cells; format: cell-based; conditions: On day 3; read-out: Vero IC50 (cytotoxicity)
From the text: as §1

Hepatitis B virus (HBV) = conditions: racemic BCH-189; FTC; cited from earlier work
[1] = tested on: human immunodeficiency viruses (HIV); conditions: racemic BCH-189; FTC; cited from earlier work
malignant cells = conditions: under both euoxic and hypoxic conditions; cited from earlier work
[2] = mice; cited from earlier work
[3] = mice, radiolabeled; cited from earlier work
hamster V-79 cells = conditions: when irradiated with low energy neutrons; cited from earlier work

Question: Which EC50 (HIV-1 (strain LAV)) does the source give for “5'-O-Butyryl-5-carboranyl-3'-thia-2',3'-dideoxyuridine” here?
Answer: 6.4 µM

Question: What does the source list for “5-Carboranyl-2',3'-dideoxy-3'-thiauridine”?
Answer: CC50 (CEM): 37.9 µM; CC50 (PBM): > 100 µM; CC50 (Vero): 34.2 µM; EC50 (HIV-1 (strain LAV)): 12.1 µM

Question: With `Nc1ccn([C@H]2CS[C@@H](CO)O2)c(=O)n1` (racemic) [BCH-189, 2', 3'-dideoxy-3'-thiacytidine] as the compound, how does the “viability as anti-HBV agent” value (Hepatitis B virus (HBV)) read?
Answer: demonstrated

Question: What about the “viability as anti-HIV agent” value [1] of the same compound?
Answer: demonstrated

Question: With `Cc1cc(OP(=O)(O)O)c2cc(I)ccc2c1OP(=O)(O)O` [6-I-MNDP, 6-iodo-2-methyl-1,4-naphthoquinol bis(diammonium phosphate)] as the compound, how does the “uptake into malignant cells relative to normal cells” value (malignant cells) read?
Answer: 15-20 fold

Question: And the “metabolic stability of the halogen-carbon bond” value [2]?
Answer: metabolically stable

Question: And the “uptake in tumor tissues” value [3]?
Answer: high uptake

Question: What about the “uptake into critical radiosensitive tissues, such as bone-marrow, colon, and lung” value [3] of the same compound?
Answer: low uptake

Question: With `O=c1[nH]c(=O)n([C@H]2C[C@H](O)[C@@H](CO)O2)cc1B(O)O` [DBDU, 5-dihydroxyboryl-2'-deoxyuridine] as the compound, how does the “destruction of hamster V-79 cells” value (hamster V-79 cells) read?
Answer: destroy hamster V-79 cells

Question: For `Nc1nc(=O)n([C@H]2CS[C@@H](CO)O2)cc1F` [FTC, 2', 3'-dideoxy-5-fluoro-3'-thiacytidine], which “viability as anti-HBV agent” value (Hepatitis B virus (HBV)) is on record?
Answer: demonstrated

Question: What about the “viability as anti-HIV agent” value [1] of the same compound?
Answer: demonstrated
